{
  "source": "patent US20220248673A1",
  "about": "“FUNGICIDAL COMBINATIONS, MIXTURES AND COMPOSITIONS AND USES THEREOF” (priority 2019, published 2022)",
  "key": {"[1]": {"system": "Z. tritici strain Mg Tri-R6", "test": "Efficacy on first-leaf fragments of treated wheat plantlets cv. Alixan inoculated with Z. tritici, AUDPC-based (Example 4, pydiflumetofen)", "format": "in vivo, Zymoseptoria tritici", "settings": "from AUDPC (21 and 28 dpi)", "description": "Winter wheat plants cv. Alixan (Limagrain) at the BBCH 12 growth stage were treated with mixture of Compound of Formula I and pydiflumetofen at several rates with a hand sprayer at 2 bars calibrated to deliver the equivalent of 200 L/ha. The Compound of Formula I was applied at 5 g a.i./ha. Pydiflumetofen was applied at 0.00032-0.0016 and 0.008 g a.i./ha. Three replicates (pots) of 6 wheat plants each were used for each condition tested.\nAfter treatment, wheat plants were left to dry at room temperature for 1 hour and then incubated in a climatic chamber having a temperature of 24° C. day/18° C. night, photoperiod of 16 h light/8 h dark and a relative humidity of 65%. Fragments of the first leaf were cut and transferred in Petri dish containing adapted water agar (6 leaf fragments per Petri dish). Fragments were inoculated with a calibrated pycnospores suspension of Z. tritici strain Mg Tri-R6.\nAfter inoculation, Petri dishes were incubated in a climatic chamber having a temperature of 20° C. day/17° C. night, photoperiod of 16 h light/8 h dark and controlled relative humidity.\nDisease assessments were carried out 21 days post inoculation (dpi) and 28 dpi by measuring the length of the necrosis of the leaf fragment. The intensity of infection was then determined in percent of the total length of the leaf fragment.\n(§1) The efficacy was calculated based on the Area Under the Disease Progress Curve (AUDPC) which is a quantitative measure of disease intensity over time. The most commonly used method for estimating the AUDPC, the trapezoidal method, was performed for each time interval by multiplying the average disease intensity between each pair of adjacent time points by the corresponding time interval.\n(§2) The fungicide efficacies were determined from the AUDPC values and expressed as a percent of the untreated control."}, "[2]": {"system": "Z. tritici strain Mg Tri-R6", "test": "Efficacy on first-leaf fragments of treated wheat plantlets cv. Alixan inoculated with Z. tritici, AUDPC-based (Examples 1-3)", "format": "in vivo, Zymoseptoria tritici", "settings": "from AUDPC (21 and 28 dpi), percent of untreated control", "description": "Winter wheat plants cv. Alixan (Limagrain) at the BBCH 12 growth stage are treated with a mixture of the compound of Formula I and a fungicide selected from the group consisting of fluindapyr, pydiflumetofen, mefentrifluconazole, fenpicoxamid, inpyrfluxam and isofetamid.\nThe compound of Formula I and the fungicide (A) are applied at different rates and at different weight ratio with a hand sprayer at 2 bars calibrated. For each condition tested, three replicates (pots) of 6 wheat plants are used.\nFragments of the first leaf are cut and are transferred into a Petri dish containing adapted water agar (6 leaf fragments per Petri dish). Fragments are inoculated with a calibrated pycnospores suspension of Z. tritici strain Mg Tri-R6.\n(§3) After inoculation, Petri dishes are incubated in a climatic chamber having a temperature of 20° C. day/17° C. night, photoperiod of 16 h light/8 h dark, and controlled relative humidity. Disease assessments are carried out 21 days post inoculation (dpi) and 28 dpi by measuring the length of the necrosis of the leaf fragment. The intensity of infection is then determined as a percent of the total length of the leaf fragment.\nas §1, with “is” for “was”\nThe fungicide efficacies are determined from the AUDPC values and expressed as a percent of the untreated control.\nThe compound of Formula I and mefentrifluconazole were applied with a hand sprayer at 2 bars calibrated to deliver the equivalent of 200 L/ha. Three replicates (pots) of 6 wheat plants each were used for each treatment group.\nFragments of the first leaf were cut and transferred into a Petri dish containing adapted water agar (6 leaf fragments per Petri dish). Fragments were inoculated with a calibrated pycnospores suspension of Z. tritici strain Mg Tri-R6.\nas §3, with “dishes were” for “dishes are”, “assessments were” for “assessments are”, “infection was” for “infection is”, “as” for “as a”\nas §1, §2\nThe compound of Formula I and fenpicoxamid were applied with a hand sprayer at 2 bars calibrated to deliver the equivalent of 200 L/ha. […]\nAfter inoculation, Petri dishes were incubated in a climatic chamber having a temperature of 20° C. day/17° C. night, photoperiod of 16 h light/8 h dark and controlled relative humidity. […] The intensity of infection was then determined as percent of the total length of the leaf fragment. […]"}, "[3]": {"settings": "fungicide (A) alone, rate 0.39 g a.i./ha"}},
  "data": [
    {"compound": "Cc1ccc(S(=O)(=O)n2cc(F)c(=N)n(C)c2=O)cc1", "note": "[Compound of Formula I, 5-fluoro-4-imino-3-methyl-1-tosyl-3,4-dihydropyrimidin-2(1H)-one]", "values": [
      {"measurement": "Observed Efficacy", "setting": "[1]; compound of Formula I alone, rate 5 g a.i./ha, Example 4", "result": 63.2, "unit": "%"},
      {"measurement": "Observed Efficacy", "setting": "[2]; compound of Formula I alone, rate 5 g a.i./ha", "result": 56.4, "unit": "%"},
      {"measurement": "Observed Efficacy", "setting": "[2]; compound of Formula I alone, rate 10 g a.i./ha", "result": 69.1, "unit": "%"}
    ]},
    {"compound": "COc1ccnc(C(=O)N[C@H]2COC(=O)[C@H](Cc3ccccc3)[C@@H](OC(=O)C(C)C)[C@H](C)OC2=O)c1OCOC(=O)C(C)C", "note": "[Fenpicoxamid, (3S,6S,7R,8R)-8-benzyl-3-{3-[(isobutyryloxy)methoxy]-4-methoxypyridine-2-carboxamido}-6-methyl-4,9-dioxo-1,5-dioxonan-7-yl-isobutyrate]", "values": [
      {"measurement": "Observed Efficacy", "setting": "[2]; [3]", "result": 56.0, "unit": "%"}
    ]},
    {"compound": "CC1CC(C)(C)c2c(F)ccc(NC(=O)c3cn(C)nc3C(F)F)c21", "note": "(stereo not drawn) [Fluindapyr, 3-(Difluoromethyl)-N-(7-fluoro-2,3-dihydro-1,1,3-trimethyl-1H-inden-4-yl)-1-methyl-1H-pyrazole-4-carboxamide]", "values": [
      {"measurement": "Observed Efficacy", "setting": "[2]; [3]", "result": 43.5, "unit": "%"}
    ]},
    {"compound": "CC(O)(Cn1cncn1)c1ccc(Oc2ccc(Cl)cc2)cc1C(F)(F)F", "note": "(stereo not drawn) [Mefentrifluconazole, 2-[4-(4-chlorophenoxy)-2-(trifluoromethyl)phenyl]-1-(1,2,4-triazol-1-yl)propan-2-ol]", "values": [
      {"measurement": "Observed Efficacy", "setting": "[2]; [3]", "result": 46.8, "unit": "%"}
    ]},
    {"compound": "CON(C(=O)c1cn(C)nc1C(F)F)[C@@H](C)Cc1c(Cl)cc(Cl)cc1Cl", "note": "[Pydiflumetofen, 3-(difluoromethyl)-N-methoxy-1-methyl-N-[(2S)-1-(2,4,6-trichlorophenyl)propan-2-yl]-1H-pyrazole-4-carboxamide]", "values": [
      {"measurement": "Observed Efficacy", "setting": "[1]; pydiflumetofen alone, rate 0.00032 g a.i./ha", "result": 21.3, "unit": "%"},
      {"measurement": "Observed Efficacy", "setting": "[1]; pydiflumetofen alone, rate 0.0016 g a.i./ha", "result": 35.6, "unit": "%"},
      {"measurement": "Observed Efficacy", "setting": "[1]; pydiflumetofen alone, rate 0.008 g a.i./ha", "result": 44.0, "unit": "%"}
    ]}
  ]
}
